Assay [1] deals with T1, proMMP9(20-445;ΔFnII) (SEQ ID NO:6) (Homo sapiens, UniProt P14780, DEL216-390).
T1 construct: start methionine (N); made in house; host or cells: E. coli BL21(DE3) RIL
T1 sequence (P14780 with tags, fused parts or gaps DEL216-390): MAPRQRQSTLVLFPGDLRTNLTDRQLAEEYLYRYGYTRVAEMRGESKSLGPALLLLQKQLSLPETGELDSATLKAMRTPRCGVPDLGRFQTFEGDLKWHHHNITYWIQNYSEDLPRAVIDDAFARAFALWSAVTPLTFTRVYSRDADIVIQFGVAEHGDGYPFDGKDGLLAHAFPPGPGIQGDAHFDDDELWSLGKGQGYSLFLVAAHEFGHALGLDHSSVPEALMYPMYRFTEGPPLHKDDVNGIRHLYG
The assay can be described thus: ThermoFluor binding assay with proMMP9(20-445;ΔFnII). The conditions noted are these: pH 7.0. The method, boiled down: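 proMMP9(20-445;ΔFnII) at 2.8 μM with 50 μM 1,8-ANS in 50 mM HEPES pH 7.0, 100 mM NaCl, 0.001% Tween-20, 2.5 mM MgCl2, 300 μM CaCl2; compounds serially diluted in DMSO. Heated 40–90 °C at 1 °C/min, fluorescence read at 500±25 nm. Tm fit by standard equations; binding fit using DSC/TF-derived thermodynamic parameters.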

Assay [2] deals with T2, proMMP9(67-444;ΔFnII) (SEQ ID NO:5) (Homo sapiens, UniProt P14780, DEL216-390).
T2 construct: start methionine (N); made in house; host or cells: E. coli BL21(DE3) RIL
T2 sequence (P14780 with tags, fused parts or gaps DEL216-390): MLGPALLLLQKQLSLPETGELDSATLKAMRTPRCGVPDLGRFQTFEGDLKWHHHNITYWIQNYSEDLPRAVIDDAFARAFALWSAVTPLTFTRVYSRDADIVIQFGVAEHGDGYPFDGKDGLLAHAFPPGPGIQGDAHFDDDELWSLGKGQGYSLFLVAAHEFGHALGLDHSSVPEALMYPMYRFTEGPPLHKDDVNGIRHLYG
The assay can be described thus: ThermoFluor binding assay with proMMP9(67-444;ΔFnII). The conditions noted are these: pH 7.0. In a few lines: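 Thermal shift binding with 3.5 μM proMMP9(67-444;ΔFnII) and 50 μM 1,8-ANS in 50 mM HEPES pH 7.0, 100 mM NaCl, 2.5 mM MgCl2, 300 μM CaCl2, 0.001% Tween-20, with serially diluted compound. Heated 40 to 90° C at 1° C/min; fluorescence-derived Tm fitted using DSC/ThermoFluor thermodynamic parameters.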

For the molecule `Cc1nc(C)c(-c2csc(Nc3cc(S(N)(=O)=O)ccc3OC(C)C)n2)s1` [Example 64, 3-(2′,4′-Dimethyl-[4,5′]bithiazolyl-2-ylamino)-4-isopropoxy-benzenesulfonamide.HBr], the Kd in assay [1] was 100 nM; in assay [2], 260 nM.

Values taken from patent US20120129842A1, “BISTHIAZOLE INHIBITORS OF PRO-MATRIX METALLOPROTEINASE ACTIVATION” (priority 2010, published 2012).
